ChEMBL document CHEMBL4665624, “Synthesis of 5-(4-(1H-phenanthro[9,10-d]imidazol-2-yl)benzylidene)thiazolidine-2,4-dione as promising DNA and serum albumin-binding agents and evaluation of antitumor activity” (Eur J Med Chem, 2019)

How the values were obtained:
HCC 2998 = test: Antitumor activity against human HCC2998 cells assessed as cell growth inhibition at 10 uM incubated for 48 hrs by sulforhodamine B assay; assay type: functional; details: read-out: GI
OVCAR-3 = test: Antitumor activity against human OVCAR-3 cells assessed as cell growth inhibition at 10 uM incubated for 48 hrs by sulforhodamine B assay; assay type: functional; details: read-out: GI
Hs-578T = test: Antitumor activity against human HS 578T cells assessed as cell growth inhibition at 10 uM incubated for 48 hrs by sulforhodamine B assay; assay type: functional; details: read-out: GI
SNB-75 = test: Antitumor activity against human SNB-75 cells assessed as cell growth inhibition at 10 uM incubated for 48 hrs by sulforhodamine B assay; assay type: functional; details: read-out: GI
MDA-MB-435 = test: Antitumor activity against human MDA-MB-435 cells assessed as cell growth inhibition at 10 uM incubated for 48 hrs by sulforhodamine B assay; assay type: functional; details: read-out: GI
SF-295 = test: Antitumor activity against human SF295 cells assessed as cell growth inhibition at 10 uM incubated for 48 hrs by sulforhodamine B assay; assay type: functional; details: read-out: GI
MDA-MB-231 = test: Antitumor activity against human MDA-MB-231/ATCC cells assessed as cell growth inhibition at 10 uM incubated for 48 hrs by sulforhodamine B assay; assay type: functional; details: read-out: GI
CCRF-CEM = test: Antitumor activity against human CCRF-CEM cells assessed as cell growth inhibition at 10 uM incubated for 48 hrs by sulforhodamine B assay; assay type: functional; details: read-out: GI
MCF7 = test: Antitumor activity against human MCF7 cells assessed as cell growth inhibition at 10 uM incubated for 48 hrs by sulforhodamine B assay; assay type: functional; details: read-out: GI
NCI/ADR-RES = test: Antitumor activity against human NCI/ADR-RES cells assessed as cell growth inhibition at 10 uM incubated for 48 hrs by sulforhodamine B assay; assay type: functional; details: read-out: GI
RXF 393 = test: Antitumor activity against human RXF 393 cells assessed as cell growth inhibition at 10 uM incubated for 48 hrs by sulforhodamine B assay; assay type: functional; details: read-out: GI
NCI-H23 = test: Antitumor activity against human NCI-H23 cells assessed as cell growth inhibition at 10 uM incubated for 48 hrs by sulforhodamine B assay; assay type: functional; details: read-out: GI
HT-29 = test: Antitumor activity against human HT-29 cells assessed as cell growth inhibition at 10 uM incubated for 48 hrs by sulforhodamine B assay; assay type: functional; details: read-out: GI
SN12C = test: Antitumor activity against human SN12C cells assessed as cell growth inhibition at 10 uM incubated for 48 hrs by sulforhodamine B assay; assay type: functional; details: read-out: GI
SF-268 = test: Antitumor activity against human SF268 cells assessed as cell growth inhibition at 10 uM incubated for 48 hrs by sulforhodamine B assay; assay type: functional; details: read-out: GI
SW-620 = test: Antitumor activity against human SW620 cells assessed as cell growth inhibition at 10 uM incubated for 48 hrs by sulforhodamine B assay; details: SW-620, 48 h, read-out: GI
M14 = test: Antitumor activity against human M14 cells assessed as cell growth inhibition at 10 uM incubated for 48 hrs by sulforhodamine B assay; assay type: functional; details: read-out: GI
COLO 205 = test: Antitumor activity against human COLO205 cells assessed as cell growth inhibition at 10 uM incubated for 48 hrs by sulforhodamine B assay; assay type: functional; details: read-out: GI
HCT-116 = test: Antitumor activity against human HCT116 cells assessed as cell growth inhibition at 10 uM incubated for 48 hrs by sulforhodamine B assay; assay type: functional; details: read-out: GI
KM12 = test: Antitumor activity against human KM12 cells assessed as cell growth inhibition at 10 uM incubated for 48 hrs by sulforhodamine B assay; assay type: functional; details: read-out: GI
K562 = test: Antitumor activity against human K562 cells assessed as cell growth inhibition at 10 uM incubated for 48 hrs by sulforhodamine B assay; assay type: functional; details: read-out: GI
SNB-19 = test: Antitumor activity against human SNB-19 cells assessed as cell growth inhibition at 10 uM incubated for 48 hrs by sulforhodamine B assay; assay type: functional; details: read-out: GI
NCI-H522 = test: Antitumor activity against human NCI-H522 cells assessed as cell growth inhibition at 10 uM incubated for 48 hrs by sulforhodamine B assay; assay type: functional; details: read-out: GI
IGROV-1 = test: Antitumor activity against human IGROV1 cells assessed as cell growth inhibition at 10 uM incubated for 48 hrs by sulforhodamine B assay; assay type: functional; details: read-out: GI
UACC-62 = test: Antitumor activity against human UACC-62 cells assessed as cell growth inhibition at 10 uM incubated for 48 hrs by sulforhodamine B assay; assay type: functional; details: read-out: GI
U-251 = test: Antitumor activity against human U251 cells assessed as cell growth inhibition at 10 uM incubated for 48 hrs by sulforhodamine B assay; assay type: functional; details: read-out: GI
PC-3 = test: Antitumor activity against human PC-3 cells assessed as cell growth inhibition at 10 uM incubated for 48 hrs by sulforhodamine B assay; assay type: functional; details: read-out: GI
MOLT-4 = test: Antitumor activity against human MOLT4 cells assessed as cell growth inhibition at 10 uM incubated for 48 hrs by sulforhodamine B assay; assay type: functional; details: read-out: GI
SK-MEL-28 = test: Antitumor activity against human SK-MEL-28 cells assessed as cell growth inhibition at 10 uM incubated for 48 hrs by sulforhodamine B assay; assay type: functional; details: read-out: GI
OVCAR-4 = test: Antitumor activity against human OVCAR-4 cells assessed as cell growth inhibition at 10 uM incubated for 48 hrs by sulforhodamine B assay; assay type: functional; details: read-out: GI
MDA-MB-468 = test: Antitumor activity against human MDA-MB-468 cells assessed as cell growth inhibition at 10 uM incubated for 48 hrs by sulforhodamine B assay; assay type: functional; details: read-out: GI
LOX IMVI = test: Antitumor activity against human LOX IMVI cells assessed as cell growth inhibition at 10 uM incubated for 48 hrs by sulforhodamine B assay; assay type: functional; details: read-out: GI
EKVX = test: Antitumor activity against human EKVX cells assessed as cell growth inhibition at 10 uM incubated for 48 hrs by sulforhodamine B assay; assay type: functional; details: read-out: GI
SR = test: Antitumor activity against human SR cells assessed as cell growth inhibition at 10 uM incubated for 48 hrs by sulforhodamine B assay; assay type: functional; details: read-out: GI
ACHN = test: Antitumor activity against human ACHN cells assessed as cell growth inhibition at 10 uM incubated for 48 hrs by sulforhodamine B assay; assay type: functional; details: read-out: GI
SK-OV-3 = test: Antitumor activity against human SK-OV-3 cells assessed as cell growth inhibition at 10 uM incubated for 48 hrs by sulforhodamine B assay; assay type: functional; details: read-out: GI
Malme-3M = test: Antitumor activity against human MALME-3M cells assessed as cell growth inhibition at 10 uM incubated for 48 hrs by sulforhodamine B assay; assay type: functional; details: read-out: GI
UO-31 = test: Antitumor activity against human UO-31 cells assessed as cell growth inhibition at 10 uM incubated for 48 hrs by sulforhodamine B assay; assay type: functional; details: read-out: GI
NCI-H460 = test: Antitumor activity against human NCI-H460 assessed as cell growth inhibition at 10 uM incubated for 48 hrs by sulforhodamine B assay; assay type: functional; details: read-out: GI
HCT-15 = test: Antitumor activity against human HCT15 cells assessed as cell growth inhibition at 10 uM incubated for 48 hrs by sulforhodamine B assay; assay type: functional; details: read-out: GI
A498 = test: Antitumor activity against human A498 cells assessed as cell growth inhibition at 10 uM incubated for 48 hrs by sulforhodamine B assay; assay type: functional; details: read-out: GI
786-0 = test: Antitumor activity against human 786-0 cells assessed as cell growth inhibition at 10 uM incubated for 48 hrs by sulforhodamine B assay; assay type: functional; details: read-out: GI
BT-549 = test: Antitumor activity against human BT-549 cells assessed as cell growth inhibition at 10 uM incubated for 48 hrs by sulforhodamine B assay; assay type: functional; details: read-out: GI
RPMI-8226 = test: Antitumor activity against human RPMI8226 cells assessed as cell growth inhibition at 10 uM incubated for 48 hrs by sulforhodamine B assay; assay type: functional; details: read-out: GI
HL-60(TB) = test: Antitumor activity against human HL-60(TB) cells assessed as cell growth inhibition at 10 uM incubated for 48 hrs by sulforhodamine B assay; assay type: functional; details: read-out: GI
OVCAR-8 = test: Antitumor activity against human OVCAR-8 cells assessed as cell growth inhibition at 10 uM incubated for 48 hrs by sulforhodamine B assay; assay type: functional; details: read-out: GI
NCI-H226 = test: Antitumor activity against human NCI-H226 assessed as cell growth inhibition at 10 uM incubated for 48 hrs by sulforhodamine B assay; assay type: functional; details: read-out: GI
HOP-92 = test: Antitumor activity against human HOP92 cells assessed as cell growth inhibition at 10 uM incubated for 48 hrs by sulforhodamine B assay; assay type: functional; details: read-out: GI

SMILES: CCN(CC)c1ccc(-c2nc3c4ccccc4c4ccccc4c3o2)c(O)c1
- inhibition of growth at 10 µM (HCC 2998): 18.7%
- inhibition of growth at 10 µM (OVCAR-3): 10.3%
- inhibition of growth at 10 µM (Hs-578T): 10%
- inhibition of growth at 10 µM (SNB-75): < 10%
- inhibition of growth at 10 µM (MDA-MB-435): < 10%
- inhibition of growth at 10 µM (SF-295): < 10%
- inhibition of growth at 10 µM (MDA-MB-231): 35.2%
- inhibition of growth at 10 µM (CCRF-CEM): 41.4%
- inhibition of growth at 10 µM (MCF7): 43.2%
- inhibition of growth at 10 µM (NCI/ADR-RES): 11%
- inhibition of growth at 10 µM (RXF 393): 16.6%
- inhibition of growth at 10 µM (NCI-H23): 13.5%
- inhibition of growth at 10 µM (HT-29): 64.3%
- inhibition of growth at 10 µM (SN12C): < 10%
- inhibition of growth at 10 µM (SF-268): 12%
- inhibition of growth at 10 µM (SW-620): 31.4%
- inhibition of growth at 10 µM (M14): 12.4%
- inhibition of growth at 10 µM (COLO 205): 12.8%
- inhibition of growth at 10 µM (HCT-116): 16.6%
- inhibition of growth at 10 µM (KM12): 55.6%
- inhibition of growth at 10 µM (K562): 79.7%
- inhibition of growth at 10 µM (SNB-19): < 10%
- inhibition of growth at 10 µM (NCI-H522): 19.8%
- inhibition of growth at 10 µM (IGROV-1): 19.2%
- inhibition of growth at 10 µM (UACC-62): 11.2%
- inhibition of growth at 10 µM (U-251): 15.6%
- inhibition of growth at 10 µM (PC-3): 20.3%
- inhibition of growth at 10 µM (MOLT-4): 39%
- inhibition of growth at 10 µM (SK-MEL-28): < 10%
- inhibition of growth at 10 µM (OVCAR-4): < 10%
- inhibition of growth at 10 µM (MDA-MB-468): 15.8%
- inhibition of growth at 10 µM (LOX IMVI): 75.3%
- inhibition of growth at 10 µM (EKVX): 20.2%
- inhibition of growth at 10 µM (SR): 72.4%
- inhibition of growth at 10 µM (ACHN): 23.1%
- inhibition of growth at 10 µM (SK-OV-3): < 10%
- inhibition of growth at 10 µM (Malme-3M): < 10%
- inhibition of growth at 10 µM (UO-31): 35.2%
- inhibition of growth at 10 µM (NCI-H460): 15%
- inhibition of growth at 10 µM (HCT-15): 65.1%
- inhibition of growth at 10 µM (A498): < 10%
- inhibition of growth at 10 µM (786-0): 12.2%
- inhibition of growth at 10 µM (BT-549): < 10%
- inhibition of growth at 10 µM (RPMI-8226): 44.6%
- inhibition of growth at 10 µM (HL-60(TB)): 31.4%
- inhibition of growth at 10 µM (OVCAR-8): 15%
- inhibition of growth at 10 µM (NCI-H226): < 10%
- inhibition of growth at 10 µM (HOP-92): 11%
